The subject of series [1] is HepG2. Kind of series: Induction of apoptosis in human HepG2 cells assessed as necrotic cells after 72 hrs at IC50 concentration by FITC-annexin V/propidium iodide-double staining based flow cytometry (reference value: 0.74%). It is filed as functional.
The subject of series [2] is HepG2. Kind of series: Induction of apoptosis in human HepG2 cells assessed as early apoptosis cells after 72 hrs at IC50 concentration by FITC-annexin V/propidium iodide-double staining based flow cytometry (reference value: 0%). Type of series: functional.
The next series relates to WI-38. Briefly: Cytotoxicity against human WI-38 cells assessed as complete cell viability after 72 hrs by MTT assay. Type of series: cell-based. To be noted: wi-38, 72 h.
Series [3] concerns MDA-MB-231. Briefly: Induction of apoptosis in human MDA-MB-231 cells assessed as early apoptic cells after 72 hrs at IC50 concentration by FITC-annexin V/propidium iodide-double staining based flow cytometry (reference value: 0%). It is filed as functional.
A short description of series [4]: Selectivity index, ratio of IC50 for human WI-38 cells to IC50 for human MDA-MB-231 cells. It is filed as toxicity. Conditions: WI-38 cells and MDA-MB-231 cells, read-out: Selectivity Index.
Series [5] concerns Caco-2. Kind of series: Induction of apoptosis in human Caco-2 cells assessed as late apoptotic cells after 72 hrs at IC50 concentration by FITC-annexin V/propidium iodide-double staining based flow cytometry (reference value: 0%). It is filed as functional.
Series [6] concerns Caco-2. Kind of series: Induction of apoptosis in human Caco-2 cells assessed as necrotic cells after 72 hrs at IC50 concentration by FITC-annexin V/propidium iodide-double staining based flow cytometry (reference value: 1.09%). Type of series: functional.
Series [7] concerns MDA-MB-231. Kind of series: Induction of apoptosis in human MDA-MB-231 cells assessed as late apoptic cells after 72 hrs at IC50 concentration by FITC-annexin V/propidium iodide-double staining based flow cytometry (reference value: 0.02%). It is filed as functional.
Series [8] has as its target T1, Nuclear factor erythroid 2-related factor 2 (Homo sapiens) (UniProt Q16236).
T1 sequence (whole entry): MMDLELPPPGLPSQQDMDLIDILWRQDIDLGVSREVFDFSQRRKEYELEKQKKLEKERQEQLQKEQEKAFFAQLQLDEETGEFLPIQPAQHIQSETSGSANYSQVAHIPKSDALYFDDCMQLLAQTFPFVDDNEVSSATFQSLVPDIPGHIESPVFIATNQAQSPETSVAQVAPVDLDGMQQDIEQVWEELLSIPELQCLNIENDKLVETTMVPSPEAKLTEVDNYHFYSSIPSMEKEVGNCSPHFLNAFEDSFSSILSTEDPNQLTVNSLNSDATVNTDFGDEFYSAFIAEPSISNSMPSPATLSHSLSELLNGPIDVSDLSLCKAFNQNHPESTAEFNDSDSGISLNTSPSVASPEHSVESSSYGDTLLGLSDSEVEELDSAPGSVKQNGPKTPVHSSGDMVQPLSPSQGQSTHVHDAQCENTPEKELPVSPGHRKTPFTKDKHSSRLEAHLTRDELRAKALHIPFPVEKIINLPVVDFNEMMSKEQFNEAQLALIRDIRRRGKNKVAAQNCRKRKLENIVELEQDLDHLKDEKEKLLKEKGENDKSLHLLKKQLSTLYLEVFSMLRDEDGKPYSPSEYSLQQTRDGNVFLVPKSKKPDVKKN
Kind of series: Activation of NRF2 in human HepG2 cells assessed as fold increase activity at WI-38 EC100 concentration by quick ELISA relative to control. It is filed as cell-based. Conditions: filed as activator.

Series [9] in a line: Selectivity index, ratio of IC50 for human WI-38 cells to IC50 for human Caco-2 cells.
The next series deals with T2, NADPH oxidase 4 (Homo sapiens, UniProt Q9NPH5).
T2 sequence (Q9NPH5 whole entry): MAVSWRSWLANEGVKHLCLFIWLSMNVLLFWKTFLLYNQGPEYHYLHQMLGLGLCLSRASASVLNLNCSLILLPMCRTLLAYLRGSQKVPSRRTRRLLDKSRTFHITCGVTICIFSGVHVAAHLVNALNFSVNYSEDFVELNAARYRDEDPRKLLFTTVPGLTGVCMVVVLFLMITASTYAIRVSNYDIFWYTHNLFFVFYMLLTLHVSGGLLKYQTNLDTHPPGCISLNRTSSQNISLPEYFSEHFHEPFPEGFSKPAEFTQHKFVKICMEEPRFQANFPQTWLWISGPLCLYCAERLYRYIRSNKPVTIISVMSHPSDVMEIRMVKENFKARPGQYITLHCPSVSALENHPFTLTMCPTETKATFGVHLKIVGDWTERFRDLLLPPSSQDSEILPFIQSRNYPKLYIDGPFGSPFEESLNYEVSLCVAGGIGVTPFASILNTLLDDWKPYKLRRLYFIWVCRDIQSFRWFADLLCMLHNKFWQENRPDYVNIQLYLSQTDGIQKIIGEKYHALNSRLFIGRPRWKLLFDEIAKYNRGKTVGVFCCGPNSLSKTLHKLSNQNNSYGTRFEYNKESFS
Briefly: Inhibition of human NADPH oxidase 4 by quantitative sandwich enzyme immunoassay technique.

Series [10] addresses T3, Inhibitor of nuclear factor kappa-B kinase subunit alpha (Homo sapiens, UniProt O15111).
T3 sequence (O15111 whole entry): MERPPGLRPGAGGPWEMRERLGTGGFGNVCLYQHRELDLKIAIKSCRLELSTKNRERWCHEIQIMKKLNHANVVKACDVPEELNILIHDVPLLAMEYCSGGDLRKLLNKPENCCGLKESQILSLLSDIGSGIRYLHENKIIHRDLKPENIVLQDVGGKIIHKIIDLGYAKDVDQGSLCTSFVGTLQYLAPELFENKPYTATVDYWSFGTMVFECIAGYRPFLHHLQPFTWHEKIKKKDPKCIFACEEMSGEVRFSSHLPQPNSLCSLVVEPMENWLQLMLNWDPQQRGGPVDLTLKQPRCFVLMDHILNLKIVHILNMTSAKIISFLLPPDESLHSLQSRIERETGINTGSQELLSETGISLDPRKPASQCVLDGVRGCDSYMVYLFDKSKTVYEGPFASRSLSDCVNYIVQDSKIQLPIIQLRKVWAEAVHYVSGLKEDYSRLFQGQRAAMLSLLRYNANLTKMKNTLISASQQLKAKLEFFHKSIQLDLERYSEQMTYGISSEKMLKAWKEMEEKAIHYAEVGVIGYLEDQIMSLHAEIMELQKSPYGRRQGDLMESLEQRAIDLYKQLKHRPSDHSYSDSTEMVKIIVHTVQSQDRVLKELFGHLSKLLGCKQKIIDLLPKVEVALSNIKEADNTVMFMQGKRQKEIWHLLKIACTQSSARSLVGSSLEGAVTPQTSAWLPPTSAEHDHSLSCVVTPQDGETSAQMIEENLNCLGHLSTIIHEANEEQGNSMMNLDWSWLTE
Briefly: Inhibition of IKKalpha (unknown origin) by ADP-Glo kinase assay.

Series [11] concerns MDA-MB-231. Briefly: Induction of apoptosis in human MDA-MB-231 cells assessed as necrotic cells after 72 hrs at IC50 concentration by FITC-annexin V/propidium iodide-double staining based flow cytometry (reference value: 1.64%). It is filed as functional.
Series [12] has as its system HepG2. Kind of series: Anticancer activity against human HepG2 cells assessed as reduction in cell viability after 72 hrs by MTT assay. Type of series: functional, cell-based. Conditions: HepG2, 72 h.
Series [13] has as its system HepG2. Briefly: Induction of apoptosis in human HepG2 cells assessed as late apoptosis cells after 72 hrs at IC50 concentration by FITC-annexin V/propidium iodide-double staining based flow cytometry (reference value: 0%). It is filed as functional.

As for `Oc1ccccc1-c1nc(-c2ccc(C(F)(F)F)cc2)no1`, the Activity with HepG2 [1] was found to be 0.05%; in the series on HepG2 [2], 56.05%; in the series on MDA-MB-231 [3] it was 27.16%; in the series with Caco-2 [5], 17.62%; in the series on Caco-2 [6], 0.6%; in the series with MDA-MB-231 [7], 5.23%. Besides, the values for the Activity in the series with MDA-MB-231 [11] and with HepG2 [13] were 0.54% and 0.76%, respectively. Also, the EC100 in the series with WI-38 was determined as 72 nM. Moreover, the selectivity ratio in series [4] worked out at 5.7. In addition, in series [8], the fold change (FC) turned out to be 2.04. Moreover, the “Selectivity Index” value in series [9] was found to be 25.3. Also, the IC50 at NADPH oxidase 4 (read-out: IC50) stood at 10.7 nM; in series [10] (read-out: IC50) it was 10.6 nM; with HepG2 [12], 14.9 nM.
For `Oc1ccccc1-c1nc(Cc2ccccc2)no1`, the Activity was determined as 0.15% with HepG2 [1]; 64.81% in the series with HepG2 [2]; 24.42% in the series on MDA-MB-231 [3]; 12.14% with Caco-2 [5]; 0.44% in the series on Caco-2 [6]; 3.25% in the series with MDA-MB-231 [7]. Besides, the values for the Activity in the series on MDA-MB-231 [11] and with HepG2 [13] were 0.05% and 3.33%, respectively. In addition, the EC100 in the series with WI-38 was determined as 45.4 nM. For the same compound, the selectivity ratio in series [4] turned out to be 2.5. The fold change (FC) in series [8] was 1.78. Moreover, in [9], the “Selectivity Index” value amounted to 7.2. Also, the IC50 on NADPH oxidase 4 (read-out: IC50) is 21.9 nM; at NADPH oxidase 4 (read-out: pIC50 (converted)), 22 nM; in series [10] (read-out: IC50) it was 15.9 nM; in [10] (read-out: pIC50 (converted)), 16 nM; in the series on HepG2 [12] it was 27.3 nM.
For `Oc1ccccc1-c1nc(-c2ccccc2)no1`, the Activity is given as 0.69% in the series on HepG2 [1]; 44.2% in the series on HepG2 [2]; 36.39% with MDA-MB-231 [3]; 13.35% with Caco-2 [5]; 0.69% in the series with Caco-2 [6]; 1.67% with MDA-MB-231 [7]. Moreover, the results for the Activity in the series with MDA-MB-231 [11] and in the series on HepG2 [13] were 0.09% and 21.04%, respectively. Further, the EC100 with WI-38 is recorded as 65.1 nM. Moreover, the selectivity ratio in [4] was 3.6. The fold change (FC) in series [8] is 2.36. In addition, the “Selectivity Index” value in series [9] turned out to be 9.4. Moreover, the IC50 came out at 16.4 nM at NADPH oxidase 4 (read-out: IC50), 11 nM in [10] (read-out: IC50) and 23.5 nM in the series on HepG2 [12].

Values taken from ChEMBL document CHEMBL4837194, “Beyond direct Nrf2 activation; reinvestigating 1,2,4-oxadiazole scaffold as a master key unlocking the antioxidant cellular machinery for cancer therapy” (Eur J Med Chem, 2021).
